# Measured values from ChEMBL document CHEMBL4680302, “Biologic-like In Vivo Efficacy with Small Molecule Inhibitors of TNFα Identified Using Scaffold Hopping and Structure-Based Drug Design Approaches” (J Med Chem, 2020).
# Experiments:
# [1] = Metabolic stability in rat liver microsomes assessed as half-life; type: ADME, Microsome
# [2] = Metabolic stability in mouse liver microsomes assessed as half-life; type: ADME, Microsome
# [3] = Drug exposure in TNFalpha-induced C57BL/6J mouse at 5 mg/kg, po pretreated with compound prior to 1 hr of TNFalpha challenge and measured at 3 hrs post dose; type: ADME, organism-based; conditions: in vivo, read-out: Drug uptake
# [4] = tested on: Mus musculus; assay: Antiarthritic activity against anticollagen antibody-induced arthritis BALB/c mouse model assessed as reduction in LPS-induced IL-17a production administered orally twice daily followed by LPS stimulation after 6 hrs measured on day 12 by RT-PCR analysis; type: functional, organism-based; conditions: dose 2-10 mg/kg, time 12.0 day
# [5] = Terminal drug exposure in anticollagen antibody-induced arthritis BALB/c mouse model at 2 mg/kg, po BID followed by LPS stimulation after 6 hrs measured on day 12; type: ADME, organism-based; conditions: in vivo, time 12 day, read-out: Drug uptake
# [6] = Selectivity ratio of drug exposure in TNFalpha-induced C57BL/6J mouse at 5 mg/kg, po at 3 hrs post dose to IC50 for inhibition of human TNFalpha expressed in HEK-Blue-CD40L cells assessed as inhibition of NFkappaB activation by quanti-blue based SEAP assay
# [7] = biological target: T1, Tumor necrosis factor receptor superfamily member 1A (Homo sapiens) (UniProt P19438); assay: Binding affinity to TNFR1 (unknown origin) assessed as sedimentation coefficient (S) value at 25 uM by ultracentrifugation analysis (reference value: 2.2)
# T1 sequence (whole entry): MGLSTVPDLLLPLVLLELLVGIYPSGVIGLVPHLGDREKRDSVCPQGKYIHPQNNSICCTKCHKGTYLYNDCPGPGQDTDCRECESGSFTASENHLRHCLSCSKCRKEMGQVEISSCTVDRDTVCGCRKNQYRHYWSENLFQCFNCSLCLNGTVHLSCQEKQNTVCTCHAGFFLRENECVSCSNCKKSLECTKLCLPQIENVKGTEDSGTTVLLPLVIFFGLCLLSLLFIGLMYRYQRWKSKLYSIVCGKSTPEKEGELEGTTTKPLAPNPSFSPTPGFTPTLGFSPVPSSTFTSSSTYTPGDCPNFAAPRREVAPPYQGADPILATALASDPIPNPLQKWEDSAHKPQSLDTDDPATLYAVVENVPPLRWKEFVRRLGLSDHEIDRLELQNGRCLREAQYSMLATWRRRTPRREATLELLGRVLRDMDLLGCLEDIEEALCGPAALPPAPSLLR
structure (smiles),measurement,setting,value
Cc1nc2cc(F)c(-c3cnc(C(C)(C)O)nc3)nc2c(N[C@H](C)c2cc(C#N)ccc2F)c1Cl,half-life,[1],1.15 h
same,half-life,[2],1.3 h
same,concentration at 3 h,[3],470 nM
same,Activity,[4],Dose-dependent effect
same,concentration at 288 h,[5],340 nM
same,Selectivity ratio,[6],2
same,Activity index,[7],2.2
